Source: PubChem BioAssay (NCI)
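Cultured in 96-well plates, cells were exposed to test compound for 48 hours across five concentrations. At the GI50, growth is halved. TGI denotes the concentration required for complete inhibition of growth.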

Key:
Assay in all cases: growth of human tumour cells (NCI), 48 h
[1] = system: SN12C renal
[2] = system: HL-60(TB) leukemia
[3] = system: ACHN renal
[4] = system: RXF 393 renal
[5] = system: TK-10 renal
[6] = system: OVCAR-3 ovarian
[7] = system: T-47D breast
[8] = system: MOLT-4 leukemia
[9] = system: IGROV1 ovarian
[10] = system: HOP-62 NSCLC

Row | Compound | GI50 [1] | TGI [1] | GI50 [2] | TGI [2] | GI50 [3] | TGI [3] | GI50 [4] | TGI [4] | GI50 [5] | TGI [5] | GI50 [6] | TGI [6] | GI50 [7] | TGI [7] | GI50 [8] | TGI [8] | GI50 [9] | TGI [9] | GI50 [10] | TGI [10]
1 | Nc1nc2c(s1)CCc1c-2c(Br)n(Cc2ccccc2)c1Br | 13.5 µM | 31.2 µM | 5.64 µM | 37.1 µM | 2.22 µM | 5.23 µM | 2.23 µM | 6.38 µM | 4.41 µM | 14.9 µM | 3.9 µM | 13.8 µM | 3.17 µM | 10.6 µM | 2.33 µM | 26.7 µM | 14.1 µM | 37.5 µM | 18 µM | 33.6 µM
2 | Nc1nc(OCc2cc(Br)cs2)c2[nH]cnc2n1 | 29.6 µM | > 100 µM | 27.9 µM | > 100 µM | 13.7 µM | 52 µM | 14 µM | 55.5 µM | 10.2 µM | 62.9 µM | 28.1 µM | > 100 µM | 17.5 µM | 87.5 µM | 28.5 µM | > 100 µM | 14.5 µM | 52.1 µM | 31.4 µM | > 100 µM
3 | O=C(c1ccccc1)c1ccc(Oc2ccc([N+](=O)[O-])cc2[N+](=O)[O-])cc1 | 3.25 µM | 19.1 µM | 2.19 µM | 5.89 µM | 3.72 µM | 13.6 µM | 3.32 µM | 11.8 µM | 8.33 µM | > 100 µM | 2.3 µM | 5.07 µM | 2.82 µM | 23.5 µM | 3.08 µM | > 100 µM | 2.39 µM | 5.61 µM | 7.81 µM | 43.1 µM
4 | COC(=O)C(=O)C(C(=O)C(=O)Nc1nc2ccc(C)cc2s1)c1nc2ccc([N+](=O)[O-])cc2[nH]c1=O (centres undefined) | – | > 100 µM | – | > 100 µM | – | > 100 µM | – | > 100 µM | – | > 100 µM | – | > 100 µM | – | > 100 µM | – | – | – | > 100 µM | – | > 100 µM
5 | Clc1ccc2c(c1)N(c1ncnc3ccc(-c4cnc5[nH]ccc5c4)cc13)CC2 | 1.95 µM | 20 µM | 1.26 µM | > 100 µM | 2.12 µM | 28.2 µM | 0.442 µM | 12.2 µM | 1.29 µM | 14.5 µM | 1.67 µM | 20.4 µM | 0.501 µM | 6.48 µM | 0.954 µM | > 100 µM | 0.304 µM | 2.27 µM | 2.45 µM | 17.4 µM
6 | O=CNc1ncn[nH]1 | – | > 100 µM | – | > 100 µM | – | > 100 µM | – | > 100 µM | – | > 100 µM | – | > 100 µM | – | > 100 µM | – | > 100 µM | – | > 100 µM | – | > 100 µM
7 | COc1cc(-c2nc3ccccc3s2)ccc1NC(=O)COc1ccc(Cl)cc1 | 5.29 µM | > 100 µM | > 100 µM | > 100 µM | 4.92 µM | > 100 µM | 3.25 µM | 11.3 µM | 2.68 µM | 7.06 µM | 6.8 µM | > 100 µM | 4.42 µM | > 100 µM | > 100 µM | > 100 µM | 1.14 µM | 21.2 µM | 4.15 µM | 34.3 µM
